# Laboratory results published in US9145408B2 (priority 2008, dated 2015).
# Where a name gives a salt, the structure may show the parent alone.
# Columns and labels:
# [1] = tested on: FCA-induced thermal hyperalgesia; assay: FCA model of inflammatory pain, thermal hyperalgesia; format: in vivo; conditions: rat FCA model
# Description: (§1) Test Animals: Each experiment used rats weighing between 200-260 g at the start of the experiment. The rats were group-housed and had free access to food and water at all times, except prior to oral administration of a Substituted-Quinoxaline-Type Bridged-Piperidine Compound when food was removed for 16 hours before dosing. A control group acted as a comparison to rats treated with a Substituted-Quinoxaline-Type Bridged-Piperidine Compound. The control group was administered the carrier for the Substituted-Quinoxaline-Type Bridged-Piperidine Compound. The volume of carrier administered to the control group was the same as the volume of carrier and Substituted-Quinoxaline-Type Bridged-Piperidine Compound administered to the test group.
# Inflammatory Pain: To assess the actions of a Substituted-Quinoxaline-Type Bridged-Piperidine Compound for the treatment or prevention of inflammatory pain, the Freund's complete adjuvant (“FCA”) model of inflammatory pain was used. […] The left hind paw of each animal was administered a 50 μL intraplantar injection of 50% FCA. 24 hour post injection, the animal was assessed for response to noxious mechanical stimuli by determining the PWT, or to noxious thermal stimuli by determining the PWL, as described below. […] Responses to noxious mechanical stimuli were then determined 1, 3, 5 and 24 hours post administration. Percentage reversal of hyperalgesia for each animal was defined as: […]
# Response to Thermal Stimuli as an Assessment of Thermal Hyperalgesia: The plantar test can be used to assess thermal hyperalgesia. For this test, hind paw withdrawal latencies (PWL) to a noxious thermal stimulus were determined using a plantar test apparatus (commercially available from Ugo Basile of Italy) following the technique described by K. Hargreaves et al., “A New and Sensitive Method for Measuring Thermal Nociception in Cutaneous Hyperalgesia,” Pain 32(1):77-88 (1988). The maximum exposure time was set at 32 seconds to avoid tissue damage and any directed paw withdrawal from the heat source was taken as the end point. Three latencies were determined at each time point and averaged. Either only the affected (ipsilateral) paw was tested, or both the ipsilateral and contralateral (non-injured) paw were tested.
# [2] = abnormal behavioral side effects (sedation, hyperactivity, hypoactivity); conditions: in vivo
# [3] = tested on: nerve injury-induced mechanical hyperalgesia; assay: Seltzer partial sciatic nerve ligation model of neuropathic pain, mechanical hyperalgesia; format: in vivo; conditions: rat Seltzer model, 3 mg/kg
# Description: as §1
# Partial ligation of the left sciatic nerve was performed under isoflurane/O2 inhalation anesthesia. Following induction of anesthesia, the left thigh of the rat was shaved and the sciatic nerve exposed at high thigh level through a small incision and was carefully cleared of surrounding connective tissues at a site near the trocanther just distal to the point at which the posterior biceps semitendinosus nerve branches off of the common sciatic nerve. A 7-0 silk suture was inserted into the nerve with a ⅜ curved, reversed-cutting mini-needle and tightly ligated so that the dorsal ⅓ to ½ of the nerve thickness was held within the ligature. The wound was closed with a single muscle suture (4-0 nylon (Vicryl)) and vetbond tissue glue. Following surgery, the wound area was dusted with antibiotic powder. Sham-treated rats underwent an identical surgical procedure except that the sciatic nerve was not manipulated. Following surgery, animals were weighed and placed on a warm pad until they recovered from anesthesia. Animals were then returned to their home cages until behavioral testing began. The animals were assessed for response to noxious mechanical stimuli by determining PWT, as described below, prior to surgery (baseline), then immediately prior to and 1, 3, and 5 hours after drug administration for rear paw of the animal. Percentage reversal of neuropathic hyperalgesia was defined as: […]
# Response to Mechanical Stimuli as an Assessment of Mechanical Hyperalgesia: The paw pressure assay was used to assess mechanical hyperalgesia. For this assay, hind paw withdrawal thresholds (PWT) to a noxious mechanical stimulus were determined using an analgesymeter (Model 7200, commercially available from Ugo Basile of Italy) as described in C. […] The maximum weight that could be applied to the hind paw was set at 250 g and the end point is taken was complete withdrawal of the paw. PWT was determined once for each rat at each time point and either only the affected (ipsilateral) paw was tested, or both the ipsilateral and contralateral (non-injured) paw were tested.
# [4] = molecular target: hERG (human ether a-go-go gene) (Homo sapiens (Human), UniProt Q12809); assay: cardiovascular side effects: in vitro hERG assay and APD in guinea pig purkinje fibers; format: cell-based; conditions: in vitro hERG assay; APD in guinea pig purkinje fibers
# Description: These side effects were determined using known methods: an in vitro hERG (human ether a-go-go gene) assay as disclosed in Z. Zhou et al., “Properties of HERG Channels Stably Expressed in HEK 293 Cells Studied at Physiological Temperature,” Biophysical J. 74:230-241 (1998); and APD (action potential duration) in guinea pig purkinje fibers as disclosed in J. A. Hey, “The Guinea Pig Model for Assessing Cardiotoxic Proclivities of Second Generation Antihistamines,” Arzneimittelforschung 46(8):834-837 (1996).
# [5] = 5 mg/kg dose, 3 hours after administration
# [6] = 5 mg/kg dose, 5 hours after administration
Compound,"% reversal of thermal hyperalgesia ([1]; 5 mg/kg dose, 1 hour after administration) [%]","% reversal of thermal hyperalgesia [1, 5] [%]","% reversal of thermal hyperalgesia [1, 6] [%]","abnormal behavioral side effects, such as sedation, hyperactivity and/or hypoactivity [2]","% reversal of thermal hyperalgesia ([1]; 3 mg/kg dose, 1 hour after administration) [%]","% reversal of thermal hyperalgesia ([1]; 3 mg/kg dose, 3 hours after administration) [%]","% reversal of thermal hyperalgesia ([1]; 3 mg/kg dose, 5 hours after administration) [%]",ED50 value for reversal of thermal hyperalgesia ([1]; 1 hour after administration) [mg/kg],ED50 value for reversal of thermal hyperalgesia ([1]; 3 hours after administration) [mg/kg],ED50 value for reversal of thermal hyperalgesia ([1]; 5 hours after administration) [mg/kg],% reversal of mechanical hyperalgesia ([3]; 1 hour after administration) [%],% reversal of mechanical hyperalgesia ([3]; 3 hours after administration) [%],% reversal of mechanical hyperalgesia ([3]; 5 hours after administration) [%],% reversal of mechanical hyperalgesia ([3]; 7 hours after administration) [%],cardiovascular side effects [4]
O=C(O)c1nc2ccccc2n([C@H]2C[C@H]3CC[C@@H](C2)N3C2CCCCCCCCCC2)c1=O [Compound 358],34,46,79,reduced abnormal behavioral side effects,–,–,–,–,–,–,–,–,–,–,–
"O=C(O)c1nc2ccccc2n([C@H]2C[C@H]3CC[C@@H](C2)N3[C@H]2C[C@@H]3CCC[C@@H](C3)C2)c1=O [Compound 361, 4-((endo)-8-((exo)-bicyclo[3.3.1]nonan-3-yl)-8-azabicyclo[3.2.1]octan-3-yl)-3-oxo-3,4-dihydroquinoxaline-2-carboxylic acid]",–,90,70,reduced abnormal behavioral side effects,–,–,–,–,–,–,–,–,–,–,–
"O=C(O)c1nc2ccccc2n([C@H]2C[C@H]3CCC[C@@H](C2)N3C2CC3CCCC(C3)C2)c1=O (stereo partly drawn) [Compound 362, 4-((endo)-9-((exo)-bicyclo[3.3.1]nonan-3-yl)-9-azabicyclo[3.3.1]nonan-3-yl)-3-oxo-3,4-dihydroquinoxaline-2-carboxylic acid]",–,–,–,reduced abnormal behavioral side effects,86,51,27,0.8,1.5,3.0,60,60,50,40,reduced cardiovascular side effects
"C[C@@H]1C[C@@H]2C[C@H](C1)C[C@@H](N1[C@@H]3CCC[C@H]1C[C@@H](n1c(=O)c(C(=O)O)nc4ccccc41)C3)C2 [Compound 405, (exo, endo, endo)-4-(9-(7-methylbicyclo[3.3.1]nonan-3-yl)-9-azabicyclo[3.3.1]nonan-3-yl)-3-oxo-3,4-dihydroquinoxaline-2-carboxylic acid potassium salt]",–,–,–,–,–,–,–,–,–,–,70,70,70,–,–
